The values below come from US9889123B2, “Polymorphs of deuterated omega-diphenylurea or salts thereof” (Suzhou Zelgen Biopharmaceuticals Co., Ltd., priority 2012, dated 2018).

Format in all cases: physicochemical
Data set [1] is described as follows: Solubility in solvents (description of the compound). The text has this: The compound of formula I, with a molecular formula of C21H13D3ClF3N4O3 and a molecular weight of 467.84, is a white or off-white crystal powder, odorless and tasteless.
Data set [2] in a line: Drug hygroscopicity test (Chinese Pharmacopoeia 2010 edition, Appendix XIX J). Particulars: humidistatic dryer (saturated ammonium sulfate) at 25° C.±1° C. for 24 hours.
Protocol: Take 4 dry glass weighing bottles with a top (The outer diameter was 60 mm and height was 30 mm). On the day before the test, the bottles was placed in a glass dryer (A saturated ammonium sulfate solution was placed in the lower part thereof) in a thermostatic and humidistatic chamber at 25° C.±1° C. (hereinafter, “a humidistatic dryer at 25° C.±1° C.”). The weighing bottle and its top were placed separately without the top on the bottle. Cover the glass dryer closely.
After each empty weighing bottle together with its top were placed in a humidistatic dryer at 25° C.±1° C. for 24 hours, weigh a set (the weighing bottle+its top) as a unit precisely respectively, recorded as m1. Take a sample appropriately, tile it in a glass weighing bottle weighed at a sample thickness of about 1 mm, and cover the bottle. Precisely weigh the weighing bottle with its top and the sample, recorded as m2. […] Then take off the top of the weighing bottles, and put the bottle and its top in the humidistatic dryer at 25° C.±1° C. for 24 hours.
After each sample were placed in a humidistatic dryer at 25° C.±1° C. for 24 hours, cover the weighing bottles with their tops respectively, and precisely weigh each weighing bottle with its top and the sample at this specific moment, recorded as m3. […]
Data set [3] in a line: Accelerated stability test. Particulars: 40° C., 75% RH, 1-6 months.

Take `[2H]C([2H])([2H])NC(=O)c1cc(Oc2ccc(NC(=O)Nc3ccc(Cl)c(C(F)(F)F)c3)cc2)ccn1` [compound of formula I, 4-(4-{3-[4-chloro-3-(trifluoromethyl)phenyl)-ureido]-phenoxy}-2-(N-1′,1′,1′-trideutero-methyl)picolinamide]: the solubility in acetone entry in data set [1] (solvent acetone) is on record as “slightly soluble”. For the same compound, in data set [1] (solvent anhydrous ethanol), the “solubility in anhydrous ethanol” value is reported as “slightly soluble”. Besides, in data set [1] (solvent dimethyl formamide), the “solubility in dimethyl formamide” value is “very soluble”. Moreover, the “solubility in dimethyl sulfoxide” value in data set [1] (solvent dimethyl sulfoxide) is “very soluble”. Moreover, the “solubility in glacial acetic acid” value in data set [1] (solvent glacial acetic acid) is on record as “slightly soluble”. For the same compound, the solubility in methanol entry in data set [1] (solvent methanol) is reported as “sparingly soluble”. For the same compound, the solubility in water entry in data set [1] (solvent water) is “practically insoluble”.
Consider `Cc1ccc(S(=O)(=O)O)cc1.[2H]C([2H])([2H])NC(=O)c1cc(Oc2ccc(NC(=O)Nc3ccc(Cl)c(C(F)(F)F)c3)cc2)ccn1` [polymorph I, 1/1 p-toluenesulfonate of 4-(4-{3-[4-chloro-3-(trifluoromethyl)phenyl)-ureido]-phenoxy}-2-(N-1′,1′,1′-trideutero-methyl)picolinamide], for which, in data set [2], the hygroscopicity entry is recorded as “no hygroscopicity” and the “weight increase (%)” value is given as 0%. The “stability of crystal form” value in data set [3] is reported as “very stable”. The “purity after accelerated stability test” value in data set [3] (compared to freshly prepared (0 Months)) is reported as “above 99%”.
Take `CNC(=O)c1cc(Oc2ccc(NC(=O)Nc3ccc(Cl)c(C(F)(F)F)c3)cc2)ccn1.Cc1ccc(S(=O)(=O)O)cc1` [polymorph II, methanol solvate of the 1/1 p-toluenesulfonate of 4-(4-{3-[4-chloro-3-(trifluoromethyl)phenyl)-ureido]-phenoxy}-2-(N-1′,1′,1′-trideutero-methyl)pico linamide]: the “stability of crystal form” value in data set [3] is “very stable”.
Consider `CCO.Cc1ccc(S(=O)(=O)O)cc1.[2H]C([2H])([2H])NC(=O)c1cc(Oc2ccc(NC(=O)Nc3ccc(Cl)c(C(F)(F)F)c3)cc2)ccn1` [polymorph IV, ethanol solvate of the 1/1 p-toluenesulfonate of 4-(4-{3-[4-chloro-3-(trifluoromethyl)phenyl)-ureido]-phenoxy}-2-(N-1′,1′,1′-trideutero-methyl)pico linamide], for which, in data set [3], the “stability of crystal form” value is “very stable”.
For `Cc1ccc(S(=O)(=O)O)cc1.[2H]C([2H])([2H])NC(=O)c1cc(Oc2ccc(NC(=O)Nc3ccc(Cl)c(C(F)(F)F)c3)cc2)ccn1.[2H]C([2H])([2H])NC(=O)c1cc(Oc2ccc(NC(=O)Nc3ccc(Cl)c(C(F)(F)F)c3)cc2)ccn1` [polymorph V, 1/2 p-toluenesulfonate of 4-(4-{3-[4-chloro-3-(trifluoromethyl)phenyl)-ureido]-phenoxy}-2-(N-1′,1′,1′-trideutero-methyl)pico linamide], the “stability of crystal form” value in data set [3] is “very stable”.
On the same count and under the same terms, then `[2H]C([2H])([2H])NC(=O)c1cc(Oc2ccc(NC(=O)Nc3ccc(Cl)c(C(F)(F)F)c3)cc2)ccn1` [polymorph VI, 4-(4-{3-[4-chloro-3-(trifluoromethyl)phenyl)-ureido]-phenoxy}-2-(N-1′,1′,1′-trideutero-methyl)picolinamide], with “very stable”.
